Where no end group is shown, it is not given here.
Assays:
p38 [1] = assay: p38 kinase activity in human neutrophils; type: cell-based; conditions: 5 min; TNF 100 or 1000 U/ml, TNF70-80 10-50 μM
Protocol: The cells were lysed and the lysate assessed by western blot analysis for the level of dual-phosphorylated ERK1/ERK2 (top panel) and ERK2 protein (bottom panel). […] The level of myelin basic protein phosphorylation was quantitated by an Instant Imager.
Neutrophils were prepared from peripheral blood of healthy donors by a rapid single-step technique (Kumaratilake, L. M., Rathjen, D. A., Mack, P., Widmer, F., Prasertsiriroj, V., and Ferrante, A. (1995) J. Clin. Invest. 95: 2315-2323) using Hypaque-Ficoll and according to the institution's guidelines on human ethics. […] These were either used as cells in suspension or as adhered neutrophils by adding the cells to plasma coated plates as previously described (Powell, W., Gravel, S., Halwani, F., Hii, C. S., Huang, Z. H., Tan, A. M., and Ferrante, A. (1997) J. Immunol. 159: 2952-2959).
KHS (hereon referred to as “GCKR”) activity was assayed as described previously using myelin basic protein as a substrate (Shi, C. S., Leonardi, A., Kyriakis, J., Siebenlist, U., and Kerhl, J. H. (1999) J. Immunol. 163: 3279-3285). ASK-1 activation was determined in immunoprecipitates of ASK-1 by autophosphorylation (Kyriakis, J. M., and Auruch, J. (2001) Physiol. Rev. 81: 807-869). p38 and ERK activities were determined as described using myelin basic protein as a substrate (Hii, C. S., Huang, Z. H., Bilney, A., Costabile, M., Murray, A. W., Rathjen, D. A., Der, C. J., and Ferrante, A. (1998) J. Biol. Chem. 273: 19277-19282). […] A solid phase assay using glutathione-S-transferase (GST)-conjugated-jun (1-79) was employed to assay JNK activity (Hii, C. S., Huang, Z. H., Bilney, A., Costabile, M., Murray, A. W., Rathjen, D. A., Der, C. J., and Ferrante, A. (1998) J. Biol. Chem. 273: 19277-19282). Phosphorylated ASK-1, myelin basic protein and GST-jun (1-79) were fractionated on 8, 16 and 12% SDS polyacrylamide gels, respectively, and the bands were detected and radioactivity determined using an Instant Imager (Packard Instruments, Canberra, Australia).
The level of myelin basic protein phosphorylation was quantitated by an Instant Imager.

p38 [2] = assay: p38 activity in HEK293T cells; type: cell-based, human
Protocol: HEK 293T cells were stably transfected with wild-type TRAF2, a dominant-negative TRAF2 (ΔTRAF2) or an empty vector. TNF70-80 (10 μM) was added and the cells were incubated for 5 min. at 37° C., lysed and p38 immunoprecipitated. Kinase activity was assayed using myelin basic protein as a substrate. The data (representative digital radiogram and profile of phosphorylated MBP) shown are representative of 2 experiments.
HEK 293T cells were obtained from the American Type Culture Collection and maintained in DMEM, supplemented with 10% fetal calf serum. Cells, stably transfected with pRK5-TRAF2-FLAG, pRK5-TRAF287-501-FLAG (Dr. V. Dixit, Genentech Inc., South San Francisco) or an empty plasmid using LipofectAMINE 2000, were obtained from Dr P Xia, Hanson Institute, Adelaide, Australia) (Xia, P., Wang, L., Moretti, P. A., Albanese, N., Chai, F., Pitson, S. M., D'Andrea, R. J., Gamble, J. R., and Vadas, M. A. (2002) J. Biol. Chem. 277: 7996-8003).
Lysates containing equal amounts of protein (0.5-1 mg) were precleared with protein A sepharose (4° C.) before being incubated with anti-KHS, anti-p38, anti-ASK-1 or anti-ERK2 antibody (3 μg/sample). After mixing for 2 h (4° C.), the immune complexes were precipitated by the addition of protein A sepharose. The immunoprecipitates were collected by centrifugation (16,000 g×15s) and washed once with buffer A (4° C.), once with buffer B (10 mM Tris/HCl, pH 7.6, 100 mM NaCl, 1 mM EDTA and 100 μM […] and once with assay buffer (Hii, C. S., Huang, Z. H., Bilney, A., Costabile, M., Murray, A. W., Rathjen, D. A., Der, C. J., and Ferrante, A. (1998) J. Biol. Chem. 273: 19277-19282).
KHS (hereon referred to as “GCKR”) activity was assayed as described previously using myelin basic protein as a substrate (Shi, C. S., Leonardi, A., Kyriakis, J., Siebenlist, U., and Kerhl, J. H. (1999) J. Immunol. 163: 3279-3285). ASK-1 activation was determined in immunoprecipitates of ASK-1 by autophosphorylation (Kyriakis, J. M., and Auruch, J. (2001) Physiol. Rev. 81: 807-869). p38 and ERK activities were determined as described using myelin basic protein as a substrate (Hii, C. S., Huang, Z. H., Bilney, A., Costabile, M., Murray, A. W., Rathjen, D. A., Der, C. J., and Ferrante, A. (1998) J. Biol. Chem. 273: 19277-19282). […] A solid phase assay using glutathione-S-transferase (GST)-conjugated-jun (1-79) was employed to assay JNK activity (Hii, C. S., Huang, Z. H., Bilney, A., Costabile, M., Murray, A. W., Rathjen, D. A., Der, C. J., and Ferrante, A. (1998) J. Biol. Chem. 273: 19277-19282). Phosphorylated ASK-1, myelin basic protein and GST-jun (1-79) were fractionated on 8, 16 and 12% SDS polyacrylamide gels, respectively, and the bands were detected and radioactivity determined using an Instant Imager (Packard Instruments, Canberra, Australia). […]

With PSTHVLITHTI-OH [TNF70-80] the “activity of p38 in neutrophils in suspension” value (p38 [1]) was “enhanced the activity of p38”, the “activity of p38 in HEK293T cells” value (p38 [2]) was “able to stimulate the activity of p38” and the “p38 activation in HEK293T cells expressing dominant-negative ΔTRAF2” value (p38 [2]; TNF70-80 10 μM, 5 min) was “substantial attenuation of this response”. For the same substance, the “p38 activation in HEK293T cells over expressing TRAF2 compared to empty plasmid” value (p38 [2]; TNF70-80 10 μM, 5 min) was “enhanced the activation of p38 by TNF70-80” and the “increase of p38 activity over control in HEK293T cells” value (p38 [2]; treatment for 5 min, p<0.05, n=3) was 243+27 % over control.

— US8268635B2, “Methods of identifying agents that selectively activate p38 and/or NKkB signaling” (priority 2006, dated 2012)
